Data reported in US6656690B2, “Mass spectrometric methods for biomolecular screening” (priority 1998, dated 2003).
“Also recorded” adds a separate entry of the source.

Columns and labels:
16S A site 27mer RNA = assay: ESI-FTICR mass spectrometric (MASS) binding assay, 16S A-site 27-mer RNA model; parameters: species or system prokaryotic; settings: for complexes observed with 16S (in words): aminoglycosides 500 nM each, mixture with untagged 16S and tagged 18S
Description: (§1) The ESI-FTICR mass spectrum depicted in FIG. 26 was acquired from a […] mixture of untagged 16S and tagged 18S in the presence of an equimolar mixture of five aminoglycosides. It is to be understood that other biomolecules may be used in place of the aminoglycosides. The aminoglycosides have been selected from two classes of 2-deoxystreptamines: 4,5-disubstituted (paromomycin, and lividomycin), and 4,6-disubstituted (tobramycin, sisomicin, and bekanamycin), present at 500 nM each. Complexes corresponding to 1:1 binding of individual aminoglycosides were observed between 16S and all members of the aminoglycoside mixture, with the apparent affinities estimated from the abundances of the respective complexes differing substantially. Signal intensities from the complexes with paromomycin (m/z 1925.572) and lividomycin (m/z 1954.790) are consistent with MS-measured dissociation constants of 110 nM and 28 nM, respectively. The intensities of 16S complexes with tobramycin (m/z 1895.960), bekanamycin (m/z 1899.171), and sisomicin (m/z 1891.972) were reduced, consistent with solution dissociation constants of […]. Wang, et al., Biochemistry, 1997, 36, 768-779. […] The spectrum is calibrated using multiple isotope peaks of the (M-5H^+)^5− and (M-4H^+)^4− charge states of the free RNA as internal mass standards which brackets the m/z range in which complexes are observed. The average mass measurement error obtained for the complexes in FIG. 26 is 2.1 ppm when m/z differences are measured between the most abundant (4 ^13C) isotope peak of 16S and each complex. This post calibration scheme is easily automated which enables rapid, high precision mass measurements of affinity selected ligands against multiple targets in a high throughput mode.
A preferred first step of MASS screening involves mixing the RNA target (or targets) with a combinatorial library of ligands designed to bind to a specific site on the target molecule(s). Specific noncovalent complexes formed in solution between the target(s) and any library members are transferred into the gas phase and ionized by ESI. As described herein, from the measured mass difference between the complex and the free target, the identity of the binding ligand can be determined. The dissociation constant of the complex can be determined in two ways: if a ligand with a known binding affinity for the target is available, a relative Kd can be measured by using the known ligand as an internal control and measuring the abundance of the unknown complex to the abundance of the control, alternatively, if no internal control is available, Kd's can be determined by making a series of measurements at different ligand concentrations and deriving a Kd value from the “titration” curve.
Electrospray ionization Fourier transform ion cyclotron resonance mass spectrometry was performed on a solution containing […] 16S RNA (the 27-mer construct shown in FIG. 24) and 500 nM paromomycin is depicted in FIG. 13. A 1:1 complex was observed between the paromomycin and the RNA consistent with specific aminoglycoside binding at the A-site. The insets show the measured and calculated isotope envelopes of the (M-5H+)5− species of the free RNA and the RNA-paromomycin complex. High precision mass measurements were acquired using isotope peaks of the (M-5H+)^5− and (M-4H^+)^4− charge states of the free RNA as internal mass standards and measuring the m/z difference between the free and bound RNA.
ESI-MS measurements of a solution containing a fixed concentration of RNA at different concentrations of ligand were obtained. By measuring the ratio of bound:unbound RNA at varying ligand concentrations, the Kd was determined by 1/slope of the “titration curve”. The MS derived value of 110 nM is in good agreement with previously reported literature value of 200 nM. […]

18S A site model = assay: ESI-FTICR mass spectrometric (MASS) binding assay, mass-tagged 18S A-site 27-mer RNA model; parameters: species or system eukaryotic; settings: aminoglycosides 500 nM each, mixture with untagged 16S and tagged 18S
Description: as §1, with “The” for “The spectrum is calibrated using multiple isotope peaks of the (M-5H^+)^5− and (M-4H^+)^4− charge states of the free RNA as internal mass standards which brackets the m/z range in which complexes are observed. The”, “This post calibration scheme is easily automated which enables rapid, high precision mass measurements of affinity selected ligands against multiple targets in a high throughput mode.” left out

| complexes observed with 16S (in words) (16S A site 27mer RNA) | complexes observed with 16S (in words) (16S A site 27mer RNA; listed as bekamycin) | complexes observed with 16S (in words) (16S A site 27mer RNA; listed as sisomycin) | Structure (SMILES) | Kd (16S A site 27mer RNA; ESI-FTICR MS, 16S A site 27mer, read-out: MS-measured dissociation constant (KD)) [µM] | enhancement of binding affinity for 16S relative to paromomycin (16S A site 27mer RNA; lividomycin vs paromomycin) [fold] | complexes observed with 18S (in words) (18S A site model) |
| --- | --- | --- | --- | --- | --- | --- |
| reduced | Weaker complexes |  | NC[C@H]1O[C@H](O[C@H]2[C@H](O)[C@@H](O[C@H]3O[C@H](CO)[C@@H](O)[C@H](N)[C@H]3O)[C@H](N)C[C@@H]2N)[C@H](N)[C@@H](O)[C@@H]1O [bekanamycin] |  |  |  |
| reduced |  | Weaker complexes | CN[C@@H]1[C@@H](O)[C@@H](O[C@@H]2[C@@H](O)[C@H](O[C@H]3OC(CN)=CC[C@H]3N)[C@@H](N)C[C@H]2N)OC[C@]1(C)O [sisomicin] |  |  |  |
| reduced; also recorded: Weaker complexes |  |  | NC[C@H]1O[C@H](O[C@H]2[C@H](O)[C@@H](O[C@H]3O[C@H](CO)[C@@H](O)[C@H](N)[C@H]3O)[C@H](N)C[C@@H]2N)[C@H](N)C[C@@H]1O [tobramycin] |  |  |  |

| Structure (SMILES) | complexes observed with 16S (in words) (16S A site 27mer RNA) | complexes observed with 16S (in words) (16S A site 27mer RNA; listed as bekamycin) | complexes observed with 16S (in words) (16S A site 27mer RNA; listed as sisomycin) | Kd (16S A site 27mer RNA; ESI-FTICR MS, 16S A site 27mer, read-out: MS-measured dissociation constant (KD)) [µM] | enhancement of binding affinity for 16S relative to paromomycin (16S A site 27mer RNA; lividomycin vs paromomycin) [fold] | complexes observed with 18S (in words) (18S A site model) |
| --- | --- | --- | --- | --- | --- | --- |
| NC[C@@H]1O[C@H](O[C@H]2[C@@H](O)[C@H](O[C@@H]3[C@@H](O)[C@H](N)C[C@H](N)[C@H]3O[C@H]3O[C@H](CO)[C@@H](O)C[C@H]3N)O[C@@H]2CO)[C@H](N)[C@@H](O)[C@@H]1O[C@H]1O[C@H](CO)[C@@H](O)[C@H](O)[C@@H]1O [lividomycin] | High affinity complexes |  |  | 0.028 | ~4 | complete absence of complexes |
